Assay results: patent US9145354B2, “Pharmaceutical compounds” (priority 2011, dated 2015)
Read-outs that look alike come from different tables or passages of the source.

What was measured:
[1] = molecular target: full length NS3/4a (Hepatitis C virus genotype 1b (isolate BK) (HCV), UniProt P26663); experiment: NS3 Protease Assay (Example A), FRET-based; assay type: biochemical
Outline: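 Initial rates were taken from fluorescence progress curves over 30 min at room temperature, and IC50 was fitted across replicates. In-house full-length NS3/4a cleaved a FRET peptide (5-FAMsp/QXL520) from the NS4A/B site. Medium: 50 mM Tris pH8, 20 mM DTT, 1% CHAPS, 10% glycerol, 5% DMSO.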

[2] = Replicon Assay (Example B), Alamar Blue cytotoxicity CC50; assay type: cell-based; settings: human, lower value of the cell pair
Excerpt: (§1) Thus, Huh-7 cells persistently infected with an HCV-RNA construct (Bartenschlager, R. Hepatitis C replicons: potential role for drug development. Nature Rev. Drug Discov. 1, 911-916 (2002)) comprising: 5′ and 3′ non-translated regions (NTR); the non-structural genes NS3 to NS5b; as well as the G418 drug resistance gene, neomycin, (for selection of cells carrying HCV replicon RNA) fused to the firefly Luciferase reporter gene (pFKI3889Iuc-ubi-neo/NS3-3′/ET) were used to determine the cell based antiviral activity of compounds using luciferase activity as an indirect readout of HCV RNA load. In this assay […] huh-7 cells persistently infected with the HCV subgenomic replicon construct above were plated/well in a 96 well tissue culture plate. The cells were allowed to attach overnight in DMEM medium supplemented with 10% FBS 1% NEAA, and 250 μg/ml gentamicin. The following day the medium was replaced with 200 μl/well of fresh medium as described above lacking gentamicin. Semilog dilutions of compounds in medium were then added to triplicate wells (non-edge) of the cultured cells to give a 0.1% DMSO final concentration. Plates were then incubated at 37° C. in an atmosphere of 5% CO2 and air for 72 h. […] The plate was then read at 535 nm (excitation) and 590 nm (emission) on a SpectraMax Gemini reader (Molecular Devices) to determine the number of viable cells by measuring the conversion of rezasurin (Alamar blue) to resorufin in response to mitochondrial activity. In order to determine the antiviral effect of these compounds EC50 values were determined by measuring the luciferase activity of the cells. Alamar blue solution was removed from the wells and replaced with 100 μl/well of medium along with 100 μl/well of Bright-Glo reagent and incubated at room temperature for 5 minutes before transferring 100 μl/well to a white bottom 96 well plate to read in a luminometer as described in the Bright-Glo Luciferase Assay System protocol (promega).

[3] = system: HCV subgenomic replicon in Huh-7 cells; experiment: Replicon Assay (Example B), luciferase readout EC50; assay type: cell-based; settings: Hepatitis C virus, Huh-7, replicon assay, luciferase readout; upper value of the cell pair; read-out: Assay B EC50
Experimental: The activities of compounds of the invention against HCV in a cellular environment were analysed using a replicon assay as described below.
as §1

[4] = HCV NS3 protease assay, full length NS3/4a, read-out: Assay A IC50 (μM) average
[5] = read-out: IC50 against the protease activity of the full length NS3/4a

full length NS3/4a, sequence (P26663 1027-1657): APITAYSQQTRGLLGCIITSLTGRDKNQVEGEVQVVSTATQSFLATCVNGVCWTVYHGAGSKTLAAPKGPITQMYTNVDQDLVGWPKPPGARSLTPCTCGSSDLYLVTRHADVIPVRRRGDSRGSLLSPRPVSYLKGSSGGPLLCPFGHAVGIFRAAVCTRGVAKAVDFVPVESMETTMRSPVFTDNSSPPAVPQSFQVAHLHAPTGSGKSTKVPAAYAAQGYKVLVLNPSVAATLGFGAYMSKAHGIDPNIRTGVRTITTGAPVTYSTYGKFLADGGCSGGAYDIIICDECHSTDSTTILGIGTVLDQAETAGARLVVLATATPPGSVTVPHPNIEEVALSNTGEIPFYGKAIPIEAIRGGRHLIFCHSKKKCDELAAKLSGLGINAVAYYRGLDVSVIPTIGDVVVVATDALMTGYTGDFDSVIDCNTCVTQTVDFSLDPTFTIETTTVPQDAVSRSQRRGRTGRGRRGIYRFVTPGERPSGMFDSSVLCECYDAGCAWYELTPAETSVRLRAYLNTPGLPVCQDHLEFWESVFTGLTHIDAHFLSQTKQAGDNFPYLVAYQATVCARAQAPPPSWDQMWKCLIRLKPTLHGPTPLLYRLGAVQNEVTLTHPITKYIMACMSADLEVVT

| Compound | IC50 [1, 4] | CC50 at 72 h [2] | EC50 [3] | inhibition at 0.1 µM ([1]; @ 0.1 uM) | IC50 [1, 5] | inhibition at 0.03 µM ([1]; @ 0.03 uM) |
| --- | --- | --- | --- | --- | --- | --- |
| CC[C@@H](N[C@@H](C)CC(N)=O)c1ccc(Cl)c(C(=O)c2cc(C)on2)c1F [Example 110, (3S)-3-{[(1R)-1-{4-chloro-2-fluoro-3-[(5-methyl-1,2-oxazol-3-yl)carbonyl]-phenyl}-propyl]amino}-butanamide] | 0.17 µM | > 3000 nM | 510 nM |  |  |  |
| CC[C@@H](NC(C)(C)CC(N)=O)c1ccc(Cl)c(C(=O)c2cccnc2)c1F [Example 113, 3-{[(1R)-1-{4-Chloro-2-fluoro-3-[(pyridin-3-yl)carbonyl]phenyl}propyl]amino}-3-methylbutanamide] | 0.093 µM | > 3000 nM | 180 nM |  |  |  |
| [2H]C([2H])([2H])C([2H])([2H])[C@@H](N[C@@H](C)CC(N)=O)c1ccc(Cl)c(C(=O)c2ccccc2)c1F [Example 115, (3S)-3-{[(1R)-1-(3-benzoyl-4-chloro-2-fluorophenyl)(2,2,3,3,3-D)propyl]amino}-butanamide] |  | > 3000 nM | 4.1 nM | 59% |  |  |
| CC[C@@H](N[C@@H](C)CC(N)=O)c1ccc(Cl)c(C(=O)c2ccc[n+]([O-])c2)c1F [Example 116, (S)-3-{(R)-1-[4-Chloro-2-fluoro-3-(1-oxy-pyridine-3-carbonyl)-phenyl]-propylamino}-butyramide] | 0.81 µM | > 3000 nM | > 3000 nM |  |  |  |
| C[C@@H](CC(N)=O)N[C@@H](c1ccc(Cl)c(C(=O)c2cccnc2)c1F)C1CC1 [Example 119, (3S)-3-{[(R)-{4-chloro-2-fluoro-3-[(pyridin-3-yl)carbonyl]phenyl} (cyclopropyl)methyl]amino}-butanamide] | 0.12 µM | > 3000 nM | 71 nM |  | < 1 µM |  |
| C[C@@H](CC(N)=O)N[C@@H](c1ccc(Cl)c(C(=O)c2ccc(F)cc2)c1F)C1CC1 [Example 121, (3S)-3-{[(R)-{4-chloro-2-fluoro-3-[(4-fluorophenyl)-carbonyl]phenyl}(cyclopropyl)methyl]amino}butanamide] |  | > 3000 nM | 9.9 nM |  |  | 38% |
| CC[C@@H](N[C@@H](C)C1(C(N)=O)CC1)c1ccc(Cl)c(C(=O)c2cccnc2)c1F [Example 132, 1-[(1S)-1-{[(1R)-1-{4-chloro-2-fluoro-3-[(pyridin-3-yl)carbonyl]phenyl}propyl]amino}ethyl]cyclopropane-1-carboxamide] | 0.14 µM | > 3000 nM | 25 nM |  |  |  |
| CC[C@@H](N[C@@H](C)CC(N)=O)c1ccc(Cl)c(C(=O)c2ccc(C#N)nc2)c1F [Example 133, (3S)-3-{[(1R)-1-{4-chloro-3-[(6-cyanopyridin-3-yl)carbonyl]-2-fluorophenyl}propyl]-amino}butanamide] | 0.12 µM | > 3000 nM | > 3000 nM |  |  |  |
| C[C@@H](CC(N)=O)N[C@@H](c1ccc(Cl)c(C(=O)c2ccncc2)c1F)C1CC1 [Example 134, (3S)-3-{[(R)-{4-chloro-2-fluoro-3-[(pyridin-4-yl)carbonyl]phenyl}-(cyclopropyl)methyl]-amino}butanamide] | 0.085 µM | > 3000 nM | 52 nM |  |  |  |
| CC[C@@H](N[C@@H](C)CC(N)=O)c1ccc(Cl)c(C(=O)c2ccc(-n3cccn3)nc2)c1F [Example 139, (3S)-3-{[(1R)-1-(4-chloro-2-fluoro-3-{[6-(1H-pyrazol-1-yl)pyridin-3-yl]carbonyl}phenyl)-propyl]amino}-butanamide] | 0.33 µM | > 3000 nM | 420 nM |  | < 1 µM |  |
| CC[C@@H](N[C@@H](C)CC(N)=O)c1ccc(Cl)c(C(=O)c2cc[n+]([O-])cc2)c1F [Example 142, (S)-3-{(R)-1-[4-Chloro-2-fluoro-3-(1-oxy-pyridine-4-carbonyl)-phenyl]-propylamino}-butyramide] | 0.3 µM | > 3000 nM | > 3000 nM |  | < 1 µM |  |
| CC[C@@H](N[C@@H](C)CC(N)=O)c1ccc(Cl)c(C(=O)c2ccc(C(=O)O)cc2)c1F [Example 144, 4-({3-[(1R)-1-{[(2S)-1-Carbamoylpropan-2-yl]amino}propyl]-6-chloro-2-fluorophenyl}carbonyl)-benzoic acid] | 1.2 µM | > 3000 nM | > 3000 nM |  | 1 to 5 µM |  |
| CC[C@@H](N[C@@H](C)CC(N)=O)c1ccc(Cl)c(C(=O)c2cncc(N)c2)c1F [Example 145, (3S)-3-{[(1R)-1-{3-[(5-aminopyridin-3-yl)carbonyl]-4-chloro-2-fluorophenyl}propyl]-amino}butanamide] | 0.84 µM | > 10000 nM | 1000 nM |  |  |  |
| CC[C@@H](N[C@@H](C)CC(N)=O)c1ccc(Cl)c(C(=O)c2ccc(=O)[nH]c2)c1F [Example 147, (3S)-3-{[(1R)-1-{4-chloro-2-fluoro-3-[(6-oxo-1,6-dihydropyridin-3-yl)carbonyl]-phenyl}propyl]amino}-butanamide] | 0.39 µM | > 10000 nM | 2100 nM |  |  |  |
| CC[C@@H](N[C@@H](C)CC(N)=O)c1ccc(Cl)c(C(=O)c2ccc(N)cn2)c1F [Example 149, (3S)-3-{[(1R)-1-{3-[(5-aminopyridin-2-yl)carbonyl]-4-chloro-2-fluorophenyl}propyl]amino}-butanamide] | 0.2 µM | > 10000 nM | 39 nM |  |  |  |
| CC[C@@H](N[C@@H](C)CC(N)=O)c1ccc(C)c(C(=O)c2ccccc2)c1F [Example 150, (3S)-3-{[(1R)-1-(3-benzoyl-2-fluoro-4-methylphenyl)propyl]-amino}butanamide] | 0.068 µM | > 10000 nM | 310 nM |  |  |  |
| CC[C@@H](N[C@@H](C)CC(N)=O)c1ccc(OC)c(C(=O)c2ccccc2)c1F [Example 152, (3S)-3-{[(1R)-1-(3-benzoyl-2-fluoro-4-methoxyphenyl)propyl]-amino}butanamide] | 0.051 µM | > 10000 nM | 66 nM |  |  |  |
| C[C@@H](CC(N)=O)N[C@@H](c1ccc(Cl)c(C(=O)c2ccc(N)nc2)c1F)C1CC1 [Example 154, (3S)-3-{[(R)-{3-[(6-aminopyridin-3-yl)carbonyl]-4-chloro-2-fluorophenyl}(cyclo-propyl)methyl]amino}-butanamide] | 0.2 µM | > 10000 nM | 37 nM |  |  |  |
| CC[C@@H](N[C@@H](C)CC(N)=O)c1ccc(F)c(C(=O)c2ccccc2)c1F [Example 157, (3S)-3-{[(1R)-1-(3-benzoyl-2,4-difluorophenyl)propyl]-amino}butanamide] | 0.045 µM | > 10000 nM | 610 nM |  |  |  |
| CC[C@@H](N[C@@H](C)CC(N)=O)c1ccc(Cl)c(C(=O)c2ccc(-n3cc(CO)cn3)nc2)c1F [Example 159, (3S)-3-{[(1R)-1-[4-chloro-2-fluoro-3-({6-[4-(hydroxymethyl)-1H-pyrazol-1-yl]pyridin-3-yl}carbonyl)phenyl]-propyl]amino}-butanamide] | 0.24 µM | > 10000 nM | 100 nM |  |  |  |
| CC[C@@H](NCCC(N)=O)c1ccc(Cl)c(C(=O)c2cccnc2)c1F [Example 162, 3-{[(1R)-1-{4-Chloro-2-fluoro-3-[(pyridin-3-yl)carbonyl]phenyl}propyl]amino}propanamide] | 0.59 µM | > 3000 nM | > 3000 nM |  | < 1 µM |  |
| CC[C@@H](NCCC(N)=O)c1ccc(Cl)c(C(=O)c2ccccc2)c1F [Example 167, 3-{[(1R)-1-(3-Benzoyl-4-chloro-2-fluorophenyl)propyl]amino}-propanamide] | 0.098 µM | > 3000 nM | 630 nM |  | < 1 µM |  |
| CC[C@@H](NCC1(C(N)=O)CC1)c1ccc(Cl)c(C(=O)c2cccnc2)c1F [Example 168, 1-({[(1R)-1-{4-Chloro-2-fluoro-3-[(pyridin-3-yl)carbonyl]phenyl}propyl]amino}methyl)-cyclopropane-1-carboxamide] | 0.55 µM | > 3000 nM | > 3000 nM |  | < 1 µM |  |
| CC[C@H](NCCO)c1ccc(Cl)c(C(=O)c2ccccc2)c1F [Example 171, 2-{[(1S)-1-(3-benzoyl-4-chloro-2-fluorophenyl)propyl]-amino}ethan-1-ol] | 0.056 µM | > 3000 nM | > 3000 nM |  | < 1 µM |  |
